This is an account of results in US20090227781A1, “Glycolipid Derivative and Drug Containing the Same as Active Component” (priority 2005, published 2009).

Molecules are shown by their SMILES.

Assay [1] has as its system collagen induced arthritis (CIA). The conditions noted are these: Nonpatent Documents 2 to 4, Patent Document 2; cited from earlier work.
Assay [2] deals with experimental autoimmune encephalomyelitis (EAE). The conditions noted are these: Nonpatent Documents 2 to 4, Patent Document 2; cited from earlier work.
The subject of assay [3] is mononuclear cells. Description: Effect on liver mononuclear cells of Jα18 gene-deficient mice with no NKT cells. The format is cell-based. On the procedure:
(§1) Mononuclear cells were separated from the livers of C57BL/6J mice (8 weeks old, female) and incubated with the compound for 48 hours. […] The reaction by α-GC and slight intake of tritium and the slight amount of cytokine production observed for the compound at 30 ng/ml were not seen in Jα18 gene-deficient mice with no NKT cells, and, therefore, these reactions were confirmed to be NKT cell-dependent reactions (see FIG. 4).

Assay [4] concerns NKT cells. Description: Effect of compound on NKT cells: liver mononuclear cells incubated with compound for 48 hours. Type of assay: cell-based, C57BL/6J mice. The note with it: 48 hours incubation; FIG. 4. The protocol: as §1

For the compound `CCCCCCCCCCCCCCCCCCCCCCCC(=O)N[C@@H](COC1OC(CO)C(O)C(O)C1O)[C@H](O)[C@H](O)CCCCC` (stereo partly drawn) [OCH], the “effectiveness in CIA, animal model of rheumatoid arthritis” value in assay [1] was “high effectiveness”. Besides, the “effectiveness in EAE, animal model of multiple sclerosis” value in assay [2] is recorded as “high effectiveness”.
`CCCCCCCCCCCCCCCCCCCCCCCCCC(=O)N[C@@H](COC1OC(CO)C(O)C(O)C1O)[C@H](O)[C@H](O)CCCCCCCCCCCCCC` (stereo partly drawn) [α-GC, α-galactosyl ceramide]: the “reaction (tritium intake, cytokine production) in mice with no NKT cells” value in assay [3] was “not seen”. In addition, in assay [4], the “IFN-γ production (ELISA, supernatant)” value is reported as “caused”; the “IL-4 production (ELISA, supernatant)” value is listed as “caused”; the “cell proliferation (intake of tritium thymidine)” value is reported as “caused”.
